Reference: PubChem BioAssay AID248 (DTP/NCI, 2004)
“And” between values parts separate entries of the source, which are not always exact repeats. Identical values can stand only once. Inconclusive results and toxic doses are left out.

Tested on: L1210 leukemia ip in BDF1 mice, survival T/C
Experiment: NCI In Vivo Anticancer Drug Screen. Data for tumor model L1210 Leukemia (intraperitoneal) in B6D2F1 (BDF1) mice
Settings: endpoint: mean survival time, higher = longer survival
How it was run: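 Survival endpoint. Drug-treated group vs vehicle group, expressed as T divided by C. Tumor passaged by transplantation.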

[1] = dose: 25.0 mg/kg/injection, schedule: Q01DX009 (ip), vehicle: saline
[2] = dose: 50.0 mg/kg/injection, schedule: Q01DX009 (ip), vehicle: saline
[3] = dose: 100.0 mg/kg/injection, schedule: Q04DX003 (ip), vehicle: saline with Tween-80
[4] = dose: 200.0 mg/kg/injection, schedule: Q04DX003 (ip), vehicle: saline with Tween-80
[5] = dose: 400.0 mg/kg/injection, schedule: Q04DX003 (ip), vehicle: saline with Tween-80
[6] = dose: 25.0 mg/kg/injection, schedule: Q04DX003 (ip), vehicle: saline
[7] = dose: 50.0 mg/kg/injection, schedule: Q04DX003 (ip), vehicle: saline
[8] = dose: 100.0 mg/kg/injection, schedule: Q04DX003 (ip), vehicle: saline
[9] = dose: 100.0 mg/kg/injection, schedule: Q01DX009 (ip), vehicle: saline with Tween-80
[10] = dose: 200.0 mg/kg/injection, schedule: Q01DX009 (ip), vehicle: saline with Tween-80
[11] = dose: 400.0 mg/kg/injection, schedule: Q01DX009 (ip), vehicle: saline with Tween-80
[12] = dose: 100.0 mg/kg/injection, schedule: Q01DX001 (ip), vehicle: saline
[13] = dose: 400.0 mg/kg/injection, schedule: Q01DX001 (ip), vehicle: saline
[14] = dose: 100.0 mg/kg/injection, schedule: Q04DX003 (ip), vehicle: Klucel (hydroxypropylcellulose) (HPC)
[15] = dose: 200.0 mg/kg/injection, schedule: Q04DX003 (ip), vehicle: Klucel (hydroxypropylcellulose) (HPC)
[16] = dose: 400.0 mg/kg/injection, schedule: Q04DX003 (ip), vehicle: Klucel (hydroxypropylcellulose) (HPC)
[17] = dose: 200.0 mg/kg/injection, schedule: Q01DX001 (ip), vehicle: saline
[18] = dose: 100.0 mg/kg/injection, schedule: Q04DX002 (ip), vehicle: saline with Tween-80
[19] = dose: 200.0 mg/kg/injection, schedule: Q04DX002 (ip), vehicle: saline with Tween-80
[20] = dose: 400.0 mg/kg/injection, schedule: Q04DX002 (ip), vehicle: saline with Tween-80

## CCCCOC(=O)c1ccccc1C(=O)OC1CCCCC1
dose: 75.0 mg/kg/injection, schedule: Q01DX001 (ip), vehicle: Klucel (hydroxypropylcellulose) (HPC)
  T/C: 115 % of control
dose: 150.0 mg/kg/injection, schedule: Q01DX001 (ip), vehicle: Klucel (hydroxypropylcellulose) (HPC)
  T/C: 103 % of control
dose: 300.0 mg/kg/injection, schedule: Q01DX001 (ip), vehicle: Klucel (hydroxypropylcellulose) (HPC)
  T/C: 100 % of control

## CCOC(=O)/C=C(\C)OCC
[1]
  T/C: 106 % of control
[2]
  T/C: 109 % of control
dose: 100.0 mg/kg/injection, schedule: Q01DX009 (ip), vehicle: saline
  T/C: 109 % of control
dose: 200.0 mg/kg/injection, schedule: Q01DX009 (ip), vehicle: saline
  T/C: 111 % of control
dose: 400.0 mg/kg/injection, schedule: Q01DX009 (ip), vehicle: saline
  T/C: 104 % of control

## CC1(C)CC2(OC2c2cccc(Cl)c2)C(=O)c2ccccc21 (centres undefined)
[3]
  T/C: 89 % of control
[4]
  T/C: 94 % of control
[5]
  T/C: 89 % of control

## COC(=O)C(c1ccccc1)C1CCCCN1 (centres undefined)
dose: 6.25 mg/kg/injection, schedule: Q01DX009 (ip), vehicle: saline
  T/C: 105 % of control
dose: 12.5 mg/kg/injection, schedule: Q01DX009 (ip), vehicle: saline
  T/C: 98 % of control
[1]
  T/C: 96 % of control
[6]
  T/C: 97 % of control
[2]
  T/C: 100 % of control
[7]
  T/C: 97 % of control
[8]
  T/C: 108 % of control

## CC1(C)N=C(N)N=C(N)N1c1cccc(OCCC#N)c1
[6]
  T/C: 112 % of control
[7]
  T/C: 108 % of control
[8]
  T/C: 100 % of control and 104 % of control

## CC(=O)Nc1ccc(/C=C/C(=O)c2ccc([N+](=O)[O-])cc2)cc1
[9]
  T/C: 94 % of control
[3]
  T/C: 91 % of control
[10]
  T/C: 94 % of control
[4]
  T/C: 94 % of control
[11]
  T/C: 94 % of control
[5]
  T/C: 90 % of control

## CCc1nc2[nH]c(N)nc(=S)c2cc1C
dose: 100.0 mg/kg/injection, schedule: Q01DX Z (ip), vehicle: methylcellulose (MC)
  T/C: 95 % of control
dose: 200.0 mg/kg/injection, schedule: Q01DX Z (ip), vehicle: methylcellulose (MC)
  T/C: 95 % of control

## O=[N+]([O-])c1ccc(N2CCN=N2)cc1
dose: 8.0 mg/kg/injection, schedule: Q01DX015 (ip), vehicle: saline
  T/C: 107 % of control
dose: 16.0 mg/kg/injection, schedule: Q01DX015 (ip), vehicle: saline
  T/C: 110 % of control
dose: 32.0 mg/kg/injection, schedule: Q01DX015 (ip), vehicle: saline
  T/C: 113 % of control
dose: 64.0 mg/kg/injection, schedule: Q01DX015 (ip), vehicle: saline
  T/C: 116 % of control
[12]
  T/C: 103 % of control
dose: 100.0 mg/kg/injection, schedule: Q04DX003 (ip), vehicle: saline sonified
  T/C: 104 % of control
[13]
  T/C: 111 % of control

## [B-][N+](CC)(CC)c1ccccc1
dose: 50.0 mg/kg/injection, schedule: Q01DX009 (ip), vehicle: saline with Tween-80
  T/C: 92 % of control
[9]
  T/C: 95 % of control
[10]
  T/C: 92 % of control

## CCCCCCC(O)C/C=C/CCCCCCCC(=O)O (centres undefined)
dose: 100.0 mg/kg/injection, schedule: Q04DX002 (ip), vehicle: Klucel (hydroxypropylcellulose) (HPC)
  T/C: 96 % of control
dose: 200.0 mg/kg/injection, schedule: Q04DX002 (ip), vehicle: Klucel (hydroxypropylcellulose) (HPC)
  T/C: 93 % of control
dose: 400.0 mg/kg/injection, schedule: Q04DX002 (ip), vehicle: Klucel (hydroxypropylcellulose) (HPC)
  T/C: 86 % of control

## Nc1ccc(/C=C/c2ccc(N)cc2)cc1
[14]
  T/C: 97 % of control
[15]
  T/C: 94 % of control
[16]
  T/C: 94 % of control

## CCCOc1ccc(C)cc1
[12]
  T/C: 93 % of control
[17]
  T/C: 108 % of control

## O=C1C(O)=C(Cl)C(=O)C(O)=C1Cl
[9]
  T/C: 106 % of control
[8]
  T/C: 114 % of control
[10]
  T/C: 95 % of control
dose: 200.0 mg/kg/injection, schedule: Q04DX003 (ip), vehicle: saline
  T/C: 120 % of control
dose: 400.0 mg/kg/injection, schedule: Q04DX003 (ip), vehicle: saline
  T/C: 116 % of control

## CCCC(C(=O)OCCNC1CCCCC1)c1ccccc1 (centres undefined)
dose: 75.0 mg/kg/injection, schedule: Q01DX001 (ip), vehicle: saline
  T/C: 104 % of control

## CCC1=C/C(=C/c2ccc([N+](=O)[O-])cc2)C(=O)S1
dose: 100.0 mg/kg/injection, schedule: Q01DX001 (ip), vehicle: saline with Tween-80
  T/C: 87 % of control
dose: 200.0 mg/kg/injection, schedule: Q01DX001 (ip), vehicle: saline with Tween-80
  T/C: 87 % of control
dose: 400.0 mg/kg/injection, schedule: Q01DX001 (ip), vehicle: saline with Tween-80
  T/C: 87 % of control

## CC(C)/C(=N\N=C(\c1ccccc1)C(C)C)c1ccccc1
[18]
  T/C: 94 % of control
[19]
  T/C: 87 % of control
[20]
  T/C: 97 % of control

## CCOC(=O)NN(C(=O)OCC)c1c(NNC(C)=O)nc(N)[nH]c1=O
[12]
  T/C: 99 % of control
[17]
  T/C: 92 % of control
[13]
  T/C: 99 % of control

## CN(C)N=Nc1ccc(C(=N)N)cc1
dose: 100.0 mg/kg/injection, schedule: Q01DX001 (ip), vehicle: acid diluted with saline
  T/C: 105 % of control

## CCOC(=O)c1[nH]c(C)c(C(=O)OCc2ccccc2)c1CCC(=O)O
dose: 75.0 mg/kg/injection, schedule: Q01DX001 (ip), vehicle: saline with Tween-80
  T/C: 92 % of control
dose: 150.0 mg/kg/injection, schedule: Q01DX001 (ip), vehicle: saline with Tween-80
  T/C: 97 % of control
dose: 300.0 mg/kg/injection, schedule: Q01DX001 (ip), vehicle: saline with Tween-80
  T/C: 100 % of control

## COC(=O)CSC(=O)C(O)c1ccccc1 (centres undefined)
[14]
  T/C: 96 % of control
[15]
  T/C: 103 % of control
[16]
  T/C: 103 % of control

## ON=C1CCCCC1
dose: 75.0 mg/kg/injection, schedule: Q01DX009 (ip), vehicle: other
  T/C: 95 % of control
[12]
  T/C: 88 % of control
[9]
  T/C: 96 % of control
dose: 100.0 mg/kg/injection, schedule: Q04DX002 (ip), vehicle: other
  T/C: 111 % of control
[18]
  T/C: 97 % of control
dose: 150.0 mg/kg/injection, schedule: Q01DX009 (ip), vehicle: other
  T/C: 105 % of control
[17]
  T/C: 96 % of control
[10]
  T/C: 94 % of control
dose: 200.0 mg/kg/injection, schedule: Q04DX002 (ip), vehicle: other
  T/C: 97 % of control
[19]
  T/C: 94 % of control
dose: 300.0 mg/kg/injection, schedule: Q01DX009 (ip), vehicle: other
  T/C: 94 % of control
[13]
  T/C: 93 % of control
[11]
  T/C: 91 % of control
dose: 400.0 mg/kg/injection, schedule: Q04DX002 (ip), vehicle: other
  T/C: 97 % of control
[20]
  T/C: 102 % of control

## Cc1ccc(C2(C#N)CCCCC2)cc1
[9]
  T/C: 96 % of control
[3]
  T/C: 108 % of control
[10]
  T/C: 110 % of control
[4]
  T/C: 98 % of control
[11]
  T/C: 110 % of control
[5]
  T/C: 101 % of control

## O=C1CN(C(=O)CN2C(=O)c3ccccc3C2=O)C2(CCCCC2)O1
dose: 66.0 mg/kg/injection, schedule: Q04DX003 (ip), vehicle: saline sonified
  T/C: 94 % of control
dose: 150.0 mg/kg/injection, schedule: Q04DX003 (ip), vehicle: saline sonified
  T/C: 101 % of control
dose: 200.0 mg/kg/injection, schedule: Q04DX003 (ip), vehicle: saline sonified
  T/C: 95 % of control
dose: 400.0 mg/kg/injection, schedule: Q04DX003 (ip), vehicle: saline sonified
  T/C: 97 % of control

## COC(C)c1nnnn1C (centres undefined)
[3]
  T/C: 97 % of control
[4]
  T/C: 98 % of control
[5]
  T/C: 101 % of control

## O=[N+]([O-])c1ccc2nccc(Cl)c2c1
dose: 25.0 mg/kg/injection, schedule: Q01DX009 (ip), vehicle: Klucel (hydroxypropylcellulose) (HPC)
  T/C: 97 % of control
dose: 50.0 mg/kg/injection, schedule: Q01DX009 (ip), vehicle: Klucel (hydroxypropylcellulose) (HPC)
  T/C: 92 % of control
[14]
  T/C: 95 % of control

## CNC(=O)N(C)N=O
dose: 10.0 mg/kg/injection, schedule: Q01DX Z (ip), vehicle: carboxymethylcellulose (CMC)
  T/C: 92 % of control
dose: 75.0 mg/kg/injection, schedule: Q01DX Z (ip), vehicle: carboxymethylcellulose (CMC)
  T/C: 157 % of control and 168 % of control
dose: 100.0 mg/kg/injection, schedule: Q01DX Z (ip), vehicle: carboxymethylcellulose (CMC)
  T/C: 155 % of control
dose: 125.0 mg/kg/injection, schedule: Q01DX Z (ip), vehicle: carboxymethylcellulose (CMC)
  T/C: 101 % of control
